From ChEMBL document CHEMBL1127036, “Design of antineoplastic agents on the basis of the "2-phenylnaphthalene-type" structural pattern. 2. Synthesis and biological activity studies of benzo]b]naphtho[2,3-d]furan-6,11-dione derivatives” (J Med Chem, 1993)
Active and inactive are the calls of the source. The rule behind the calls is not given here.

What was measured:
Assay type in all cases: functional, cell-based
Tumor Cell line [1] = test: Tested for the inhibition of human cancer cell growth (NCI drug-discovery screen.)
HL-60 = test: Tested for inhibition against human promyelocytic leukemia cells (HL-60 )
[2] = Cytotoxicity against human SCLC cells resistant to cisplatin (SCLC/CDDP)
N592 = test: Cytotoxicity against human small-cell lung cancer (SCLC)
Tumor Cell line [3] = test: Tested for the inhibition of human cancer cell growth (NCI drug-discovery screen.); Inactive
CCRF-CEM [4] = test: Tested for inhibition against CEM cells; details: Homo sapiens
CCRF-CEM [5] = test: Tested for inhibition against CEM/MDR (multidrug resistant) cells; details: Homo sapiens

Molecule | IC50 (Tumor Cell line [1]) | IC50 (HL-60) | IC50 ([2]; Homo sapiens, SCLC) | IC50 (N592; Homo sapiens, N592) | Log IC50 (Tumor Cell line [3]) | IC50 (CCRF-CEM [4]) | IC50 (CCRF-CEM [5]) | IC50 ([2]; sclc) | IC50 (N592; n592)
CCN(CC)CCOc1cc(O)c2c3c(oc2c1)C(=O)c1ccccc1C3=O | 0.1 µM | 0.098 µM | 0.48 µM | 0.24 µM |  |  |  |  | 
CN(C)CCCOc1ccc2c3c(oc2c1)C(=O)c1ccccc1C3=O | 10 µM | 0.34 µM | 2.6 µM | 1.3 µM |  |  |  |  | 
CN(C)CCOc1cc(O)c2c3c(oc2c1)C(=O)c1ccccc1C3=O | 0.1 µM | 0.046 µM | 2.56 µM | 2.13 µM |  |  |  |  | 
Cc1cc(O)cc2oc3c(c12)C(=O)c1ccccc1C3=O |  | 6.65 µM | > 3.5 µM | > 3.5 µM | inactive |  |  |  | 
CN(C)CCCOc1cc2oc3c(c2cc1Cl)C(=O)c1ccccc1C3=O | 10 µM | 0.28 µM | 0.59 µM | 0.59 µM |  | 0.17 µM | 0.15 µM |  | 
CC[C@]1(O)C[C@@H]2CN(CCc3c([nH]c4ccccc34)[C@@](C(=O)OC)(c3cc4c(cc3OC)N(C)[C@H]3[C@@](O)(C(=O)OC)[C@H](OC(C)=O)[C@]5(CC)C=CCN6CC[C@]43[C@@H]65)C2)C1 [VINBLASTINE] |  |  | 0.005 µM | 0.004 µM |  |  |  |  | 
O=C1c2ccccc2C(=O)c2c1oc1cc(O)c3ccccc3c21 |  | 80.6 µM | > 3.2 µM | > 3.2 µM |  |  |  |  | 
O=C1c2ccccc2C(=O)c2c1oc1cc(O)ccc21 | 10 µM | 7.78 µM | > 3.8 µM | > 3.8 µM |  |  |  |  | 
CN(C)CCOc1cc2oc3c(c2c2ccccc12)C(=O)c1ccccc1C3=O |  | 0.87 µM | 1.95 µM | 1.3 µM | inactive |  |  |  | 
O=C1c2c(O)ccc(O)c2C(=O)c2c(NCCNCCO)ccc(NCCNCCO)c21 [MITOXANTRONE] |  |  | 0.03 µM | 0.02 µM |  |  |  |  | 
CISPLATIN |  |  |  |  |  |  |  | 6.7 µM | 0.67 µM
COc1cccc2c1C(=O)c1c(O)c3c(c(O)c1C2=O)C[C@@](O)(C(=O)CO)C[C@@H]3O[C@H]1C[C@H](N)[C@H](O)[C@H](C)O1 [DOXORUBICIN] |  |  | 0.03 µM | 0.04 µM |  |  |  |  | 
O=C1c2ccccc2C(=O)c2c1oc1cc(O)cc(O)c21 | 1 µM | 0.22 µM | 1.28 µM | 1.03 µM |  | 0.5 µM | 0.6 µM |  | 
Cc1cc(OCCN(C)C)cc2oc3c(c12)C(=O)c1ccccc1C3=O |  | 1.8 µM | > 2.6 µM | > 2.6 µM |  |  |  |  | 
CN(C)CCCOc1cc(O)c2c3c(oc2c1)C(=O)c1ccccc1C3=O | 0.1 µM | 0.045 µM | 0.68 µM | 0.68 µM |  |  |  |  | 
CC(C)N(CCOc1cc(O)c2c3c(oc2c1)C(=O)c1ccccc1C3=O)C(C)C | 1 µM | 0.089 µM | 1.13 µM | 0.22 µM |  |  |  |  | 
O=C1c2ccccc2C(=O)c2c1oc1cc3c(cc21)OCO3 |  | > 100 µM | > 40.3 µM | > 40.3 µM |  |  |  |  | 
CN(C)CCOc1cc2oc3c(c2cc1Cl)C(=O)c1ccccc1C3=O | 1 µM | 0.24 µM | 0.62 µM | 0.37 µM |  | 0.25 µM | 0.3 µM |  | 
COc1cc([C@@H]2c3cc4c(cc3[C@@H](O[C@@H]3O[C@@H]5CO[C@@H](C)O[C@H]5[C@H](O)[C@H]3O)[C@H]3COC(=O)[C@H]23)OCO4)cc(OC)c1O [ETOPOSIDE] |  |  | 1.3 µM | 0.5 µM |  |  |  |  | 
O=C1c2ccccc2C(=O)c2c1oc1cc(O)c(Cl)cc21 | 10 µM | 6.09 µM | > 3.4 µM | > 3.4 µM |  |  |  |  | 
CN(C)CCCOc1cc2oc3c(c2c2ccccc12)C(=O)c1ccccc1C3=O |  | 1.39 µM | > 2.5 µM | > 2.5 µM | inactive |  |  |  | 
O=c1[nH]cc(F)c(=O)[nH]1 [FLUOROURACIL] |  |  | 8.4 µM | 5.4 µM |  |  |  |  | 
CN(C)CCOc1ccc2c3c(oc2c1)C(=O)c1ccccc1C3=O | 10 µM | 0.3 µM | 0.94 µM | 0.73 µM |  | 0.2 µM | 0.15 µM |  | 
